One test addresses D1 (Homo sapiens, UniProt P21728). Kind of test: Radioligand binding.
The target of the next test is 5-HT5A (Homo sapiens, UniProt P47898). As to the kind of experiment: Radioligand binding.
Test [1] concerns the target DAT (Homo sapiens, UniProt Q01959). Kind of test: Radioligand binding.
Another test addresses T1, σ2 (Rattus norvegicus, UniProt Q5U3Y7).
T1 sequence (Q5U3Y7 1-176): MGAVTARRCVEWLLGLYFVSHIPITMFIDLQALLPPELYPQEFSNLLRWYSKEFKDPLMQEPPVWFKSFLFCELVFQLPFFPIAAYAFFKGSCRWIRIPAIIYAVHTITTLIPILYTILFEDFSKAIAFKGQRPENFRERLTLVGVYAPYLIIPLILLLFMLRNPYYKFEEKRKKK
As to the kind of experiment: Radioligand binding.

Another test addresses σ1 (Rattus norvegicus, UniProt Q9R0C9). As to the kind of experiment: Radioligand binding.
A further test concerns the target T2, α1A (Homo sapiens, UniProt P35348).
T2 sequence (P35348 1-466): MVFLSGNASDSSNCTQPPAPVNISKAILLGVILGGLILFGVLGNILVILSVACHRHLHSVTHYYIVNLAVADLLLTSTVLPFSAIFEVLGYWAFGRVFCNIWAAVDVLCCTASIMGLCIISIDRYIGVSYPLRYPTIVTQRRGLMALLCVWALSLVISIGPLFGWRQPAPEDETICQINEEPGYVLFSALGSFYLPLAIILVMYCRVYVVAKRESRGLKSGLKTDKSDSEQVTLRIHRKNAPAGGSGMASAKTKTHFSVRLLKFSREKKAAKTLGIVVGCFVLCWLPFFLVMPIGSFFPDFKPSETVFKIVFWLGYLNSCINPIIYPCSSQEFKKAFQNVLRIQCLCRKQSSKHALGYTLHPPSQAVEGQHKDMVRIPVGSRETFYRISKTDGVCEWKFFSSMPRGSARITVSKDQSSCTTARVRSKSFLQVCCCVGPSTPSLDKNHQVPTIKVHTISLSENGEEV
Kind of test: Radioligand binding.

The next test deals with SERT (Rattus norvegicus, UniProt P31652). As to the kind of experiment: SERT-mediated release of [3H]5-HT from rat brain synaptosomes. Type of test: biochemical. Conditions: for Emax: read-out: SERT-mediated release Emax.
For test [2], the target named is DAT (Rattus norvegicus, UniProt P23977). Kind of test: DAT-mediated release of [3H]MPP+ from rat brain synaptosomes. Format: biochemical. The settings on record: for DAT/NET ratio: (DAT EC50)^-1 ÷ (NET EC50)^-1; for DAT/NET ratio / DAT/SERT ratio: higher value = greater DAT selectivity; for DAT/SERT ratio: (DAT EC50)^-1 ÷ (SERT EC50)^-1; for Emax: read-out: DAT-mediated release Emax; for fold lower release potency at DAT: relative to SERT (MDAI: relative to SERT and NET), synaptosomal release.

Another test has as its target T3, α1D (Homo sapiens, UniProt P25100).
T3 sequence (P25100 1-572): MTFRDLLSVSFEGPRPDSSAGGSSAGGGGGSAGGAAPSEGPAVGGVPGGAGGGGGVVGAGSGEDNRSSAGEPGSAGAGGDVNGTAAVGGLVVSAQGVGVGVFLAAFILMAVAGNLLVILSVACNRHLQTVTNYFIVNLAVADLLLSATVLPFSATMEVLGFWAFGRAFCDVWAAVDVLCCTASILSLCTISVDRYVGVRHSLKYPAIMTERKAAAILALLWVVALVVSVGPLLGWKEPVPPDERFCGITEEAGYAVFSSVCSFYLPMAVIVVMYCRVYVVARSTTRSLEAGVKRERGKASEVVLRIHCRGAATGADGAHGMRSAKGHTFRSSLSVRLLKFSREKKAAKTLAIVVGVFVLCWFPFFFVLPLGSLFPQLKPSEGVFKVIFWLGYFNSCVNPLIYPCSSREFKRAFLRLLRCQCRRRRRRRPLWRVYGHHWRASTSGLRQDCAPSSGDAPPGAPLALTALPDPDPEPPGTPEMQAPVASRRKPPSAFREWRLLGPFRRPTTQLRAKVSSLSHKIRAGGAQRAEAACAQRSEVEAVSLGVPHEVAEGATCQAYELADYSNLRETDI
Kind of test: Radioligand binding.

For the next test, the target named is T4, α2C (Homo sapiens, UniProt P18825).
T4 sequence (P18825 1-462): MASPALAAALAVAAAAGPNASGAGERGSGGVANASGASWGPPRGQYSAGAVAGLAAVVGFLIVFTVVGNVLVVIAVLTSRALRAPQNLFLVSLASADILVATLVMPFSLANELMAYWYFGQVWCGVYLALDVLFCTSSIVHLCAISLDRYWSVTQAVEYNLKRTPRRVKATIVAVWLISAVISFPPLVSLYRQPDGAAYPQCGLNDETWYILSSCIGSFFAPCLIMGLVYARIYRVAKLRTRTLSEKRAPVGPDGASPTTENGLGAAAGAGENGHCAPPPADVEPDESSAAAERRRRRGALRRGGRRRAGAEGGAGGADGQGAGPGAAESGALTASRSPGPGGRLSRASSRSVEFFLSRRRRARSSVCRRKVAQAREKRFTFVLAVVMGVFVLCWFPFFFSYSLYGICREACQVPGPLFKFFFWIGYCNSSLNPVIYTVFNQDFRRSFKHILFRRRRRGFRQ
As to the kind of experiment: Radioligand binding. The settings on record: for fold lower affinity for α2C compared to 2-AI: binding, [3H]rauwolscine.

The target of the next test is T5, α2A (Homo sapiens, UniProt P08913).
T5 sequence (P08913 1-465): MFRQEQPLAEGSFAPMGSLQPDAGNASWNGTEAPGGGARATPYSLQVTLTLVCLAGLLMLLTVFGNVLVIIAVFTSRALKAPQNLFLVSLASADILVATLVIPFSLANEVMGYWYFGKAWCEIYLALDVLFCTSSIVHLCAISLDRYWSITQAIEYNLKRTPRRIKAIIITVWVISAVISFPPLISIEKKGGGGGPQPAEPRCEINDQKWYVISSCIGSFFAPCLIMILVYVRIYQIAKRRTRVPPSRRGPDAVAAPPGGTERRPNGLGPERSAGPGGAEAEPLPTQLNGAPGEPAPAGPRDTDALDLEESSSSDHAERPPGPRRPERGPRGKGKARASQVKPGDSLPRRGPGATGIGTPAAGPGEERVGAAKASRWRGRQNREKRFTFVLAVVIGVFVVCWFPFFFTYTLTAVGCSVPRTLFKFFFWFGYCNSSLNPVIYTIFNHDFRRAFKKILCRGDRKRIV
As to the kind of experiment: Radioligand binding. Conditions: for fold lower affinity for α2A compared to 2-AI: binding, [3H]rauwolscine.

The structures appear in SMILES notation.

The text below walks through data of publication PMC6848746 (Psychopharmacology, 2019).

The term Ki denotes the equilibrium dissociation constant of an inhibitor or competing ligand from its target. A high value points to weaker binding. The term EC50 denotes the concentration that produces a half-maximal response. Usually Emax stands for the size of the effect at its maximum, as opposed to the concentration needed.

σ1, sequence (Q9R0C9 whole entry): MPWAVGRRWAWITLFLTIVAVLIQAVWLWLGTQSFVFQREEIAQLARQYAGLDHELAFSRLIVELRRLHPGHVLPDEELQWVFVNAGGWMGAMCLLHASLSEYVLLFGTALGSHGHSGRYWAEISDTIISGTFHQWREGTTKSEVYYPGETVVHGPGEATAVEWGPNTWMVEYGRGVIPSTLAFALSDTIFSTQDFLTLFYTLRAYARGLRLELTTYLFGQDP
DAT (Rattus norvegicus, UniProt P23977), sequence (P23977 whole entry): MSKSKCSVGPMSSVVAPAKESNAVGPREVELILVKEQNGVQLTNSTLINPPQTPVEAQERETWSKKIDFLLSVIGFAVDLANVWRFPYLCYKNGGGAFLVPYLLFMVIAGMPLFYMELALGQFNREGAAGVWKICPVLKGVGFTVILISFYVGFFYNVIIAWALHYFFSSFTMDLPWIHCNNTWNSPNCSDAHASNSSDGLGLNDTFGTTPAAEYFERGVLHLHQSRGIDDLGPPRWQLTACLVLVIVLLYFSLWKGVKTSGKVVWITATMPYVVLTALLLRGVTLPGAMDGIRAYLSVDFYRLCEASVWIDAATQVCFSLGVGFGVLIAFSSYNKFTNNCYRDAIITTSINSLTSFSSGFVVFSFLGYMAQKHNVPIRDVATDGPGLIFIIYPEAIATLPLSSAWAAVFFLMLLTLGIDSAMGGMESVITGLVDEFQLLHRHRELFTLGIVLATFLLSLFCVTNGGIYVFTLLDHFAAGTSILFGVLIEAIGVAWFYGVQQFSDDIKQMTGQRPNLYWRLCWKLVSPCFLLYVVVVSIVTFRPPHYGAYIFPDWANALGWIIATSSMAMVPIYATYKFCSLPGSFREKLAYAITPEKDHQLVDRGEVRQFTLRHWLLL
D1, sequence (P21728 whole entry): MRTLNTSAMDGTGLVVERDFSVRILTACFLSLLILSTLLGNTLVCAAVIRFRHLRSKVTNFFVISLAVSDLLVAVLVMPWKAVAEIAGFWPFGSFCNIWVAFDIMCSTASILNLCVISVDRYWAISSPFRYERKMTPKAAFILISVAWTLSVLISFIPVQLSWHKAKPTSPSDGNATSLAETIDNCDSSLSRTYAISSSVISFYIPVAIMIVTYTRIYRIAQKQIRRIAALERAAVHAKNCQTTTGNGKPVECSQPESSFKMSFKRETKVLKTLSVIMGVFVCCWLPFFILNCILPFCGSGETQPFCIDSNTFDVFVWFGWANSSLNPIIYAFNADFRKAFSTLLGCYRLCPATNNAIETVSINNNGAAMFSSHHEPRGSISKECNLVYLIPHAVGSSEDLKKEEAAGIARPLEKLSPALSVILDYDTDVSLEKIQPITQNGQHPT
5-HT5A, sequence (P47898 whole entry): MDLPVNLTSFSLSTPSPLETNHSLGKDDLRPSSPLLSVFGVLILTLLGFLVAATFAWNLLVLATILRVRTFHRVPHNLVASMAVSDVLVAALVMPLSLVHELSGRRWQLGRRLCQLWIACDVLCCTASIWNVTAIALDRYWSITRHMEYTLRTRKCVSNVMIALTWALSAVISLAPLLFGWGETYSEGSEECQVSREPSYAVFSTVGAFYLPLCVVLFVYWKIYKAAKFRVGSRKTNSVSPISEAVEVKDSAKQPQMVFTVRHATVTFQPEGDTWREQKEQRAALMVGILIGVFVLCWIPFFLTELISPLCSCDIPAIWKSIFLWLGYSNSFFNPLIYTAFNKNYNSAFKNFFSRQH
DAT (Homo sapiens, UniProt Q01959), sequence (Q01959 whole entry): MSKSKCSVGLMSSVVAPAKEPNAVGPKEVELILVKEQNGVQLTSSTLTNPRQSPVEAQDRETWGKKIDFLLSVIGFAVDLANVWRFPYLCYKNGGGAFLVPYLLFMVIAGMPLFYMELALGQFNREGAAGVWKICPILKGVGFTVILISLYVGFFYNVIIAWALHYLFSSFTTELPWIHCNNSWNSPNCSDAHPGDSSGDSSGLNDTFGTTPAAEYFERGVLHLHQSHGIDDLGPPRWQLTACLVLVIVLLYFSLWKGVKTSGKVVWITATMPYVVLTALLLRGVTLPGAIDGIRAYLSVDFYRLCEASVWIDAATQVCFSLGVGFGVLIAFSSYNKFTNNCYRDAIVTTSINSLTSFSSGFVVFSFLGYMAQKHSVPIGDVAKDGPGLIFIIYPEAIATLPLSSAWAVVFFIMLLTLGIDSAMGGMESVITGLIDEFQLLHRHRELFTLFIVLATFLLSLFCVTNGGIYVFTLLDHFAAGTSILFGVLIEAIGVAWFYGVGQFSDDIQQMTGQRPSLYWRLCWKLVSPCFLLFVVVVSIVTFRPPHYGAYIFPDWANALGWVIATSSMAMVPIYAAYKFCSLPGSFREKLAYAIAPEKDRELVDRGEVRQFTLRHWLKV
SERT, sequence (P31652 whole entry): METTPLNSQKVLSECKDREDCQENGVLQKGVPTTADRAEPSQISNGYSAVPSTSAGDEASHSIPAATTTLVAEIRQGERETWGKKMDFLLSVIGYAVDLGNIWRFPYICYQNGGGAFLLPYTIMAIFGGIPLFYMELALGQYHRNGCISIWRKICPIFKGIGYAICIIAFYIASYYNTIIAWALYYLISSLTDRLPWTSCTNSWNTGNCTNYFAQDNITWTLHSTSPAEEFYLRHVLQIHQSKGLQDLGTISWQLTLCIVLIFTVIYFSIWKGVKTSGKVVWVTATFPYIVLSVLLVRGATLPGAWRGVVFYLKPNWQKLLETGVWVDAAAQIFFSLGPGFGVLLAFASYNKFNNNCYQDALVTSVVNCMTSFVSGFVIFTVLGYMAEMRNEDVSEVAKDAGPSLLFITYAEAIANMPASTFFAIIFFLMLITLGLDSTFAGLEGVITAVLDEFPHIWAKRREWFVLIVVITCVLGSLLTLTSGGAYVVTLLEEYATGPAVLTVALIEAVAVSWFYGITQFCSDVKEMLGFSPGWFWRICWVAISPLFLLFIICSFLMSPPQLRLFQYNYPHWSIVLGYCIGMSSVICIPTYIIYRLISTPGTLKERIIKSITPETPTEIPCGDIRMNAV

Take `COc1ccc2c(c1)CC(N)C2` (centres unmarked) [5-MeO-AI, 5-methoxy-2-aminoindan]: the inhibition constant Ki at D1, on 5-HT5A, on DAT [1], on σ2, at σ1 and at α1A was above 10 µM in each case. For the same molecule, the figures for the inhibitory constant (Ki) at α1D, at α2C and at α2A were above 10 µM, 1.22 µM and 0.751 ± 0.338 µM, respectively. For the same molecule, the EC50 turned out to be 0.134 ± 0.013 µM at SERT and 2.65 µM on DAT [2]. Also, the results for the maximum response (Emax) on SERT and on DAT [2] were 104% and 117%, respectively. The DAT/NET ratio at DAT [2] came out at 0.33. Moreover, the DAT/SERT ratio on DAT [2] amounted to 0.05. Moreover, the “fold lower release potency at DAT” value on DAT [2] is given as 20 fold. The “fold lower affinity for α2C compared to 2-AI” value at α2C is 30 fold. For the same molecule, on α2A, the “fold lower affinity for α2A compared to 2-AI” value is reported as 5 fold.
`COc1cc2c(cc1C)CC(N)C2` (centres unmarked) [MMAI, 5-methoxy-6-methyl-2-aminoindan]: the Ki on D1, on 5-HT5A, at DAT [1], on σ2, on σ1 and at α1A was above 10 µM throughout. The Ki on α1D was above 10 µM; on α2C, 1.38 µM; on α2A, 0.724 ± 0.477 µM. In addition, the EC50 was 0.031 ± 0.005 µM at SERT and above 10 µM on DAT [2]. Besides, the maximal effect (Emax) at SERT is 99%. For the same molecule, on DAT [2], the DAT/NET ratio is recorded as above 0.31. For the same molecule, at DAT [2], the DAT/SERT ratio is above 0.003. Also, on DAT [2], the “fold lower release potency at DAT” value came to 100 fold. For the same molecule, the “fold lower affinity for α2C compared to 2-AI” value at α2C was found to be 30 fold. Further, on α2A, the “fold lower affinity for α2A compared to 2-AI” value is given as 5 fold.
Regarding `NC1Cc2ccccc2C1` [2-AI, 2-aminoindan], the Ki at D1, at 5-HT5A, at DAT [1], on σ2, on σ1 and at α1A was above 10 µM in each case. The Ki was above 10 µM at α1D, 0.041 ± 0.026 µM at α2C and 0.134 ± 0.031 µM on α2A. The EC50 was above 10 µM on SERT and 0.439 ± 0.038 µM at DAT [2]. The DAT/NET ratio on DAT [2] is 0.20. Besides, the DAT/SERT ratio on DAT [2] is on record as above 22.78. The Emax on DAT [2] is 106%.
`NC1Cc2cc3c(cc2C1)OCO3` [MDAI, 5,6-methylenedioxy-2-aminoindan]: the Ki at D1, on 5-HT5A, on DAT [1], at σ2, on σ1 and at α1A was above 10 µM in each case. The Ki on α1D is above 10 µM; on α2C, 0.363 ± 0.219 µM; on α2A, 0.322 ± 0.114 µM. The values for the concentration giving a half-maximal response (EC50) at SERT and at DAT [2] were 0.114 ± 0.015 µM and 1.33 µM, respectively. Further, the maximal response (Emax) at SERT was 102%; on DAT [2], 113%. Also, at DAT [2], the DAT/NET ratio came out at 0.09. For the same molecule, at DAT [2], the DAT/SERT ratio was 0.08. For the same molecule, on DAT [2], the “fold lower release potency at DAT” value came out at 10 fold.
